# From ChEMBL document CHEMBL3046746, “Introduction to Receptors in Aging Diseases: GABA Receptors” (Med Chem Res, 2004)
# Active and inactive are the calls of the source. The rule behind the calls is not given here.
# Legend:
# Homo sapiens [1] = organism: Homo sapiens; assay: Selectivity ratio of Ki for GABAA alpha3beta3gamma3 (unknown origin) to Ki for GABAA alpha5beta3gamma2 (unknown origin)
# Homo sapiens [2] = organism: Homo sapiens; assay: Selectivity ratio of Ki for GABAA alpha2beta3gamma2 (unknown origin) to Ki for GABAA alpha5beta3gamma2 (unknown origin)
# Homo sapiens [3] = organism: Homo sapiens; assay: Selectivity ratio of Ki for GABA-Aalpha1beta3gamma2 (unknown origin) to Ki for GABAA alpha5beta3gamma2 (unknown origin)
# Rattus norvegicus [4] = assay: In vivo GABAA alpha5beta3gamma2 receptor occupancy in Rattus norvegicus (rat) assessed as inhibition of [3H]L-655,708 binding at 0.3 mg/kg, ip; type: functional; details: route intraperitoneal
# Rattus norvegicus [5] = assay: Cognitive enhancing effect in Rattus norvegicus (rat) at 0.3 mg/kg, ip by water maze test; type: functional, organism-based; design: dose 0.3 mg/kg
# [6] = target: Gamma-aminobutyric acid receptor subunit alpha-3/ beta-3/gamma-3 (Homo sapiens) (UniProt P28472+Q99928+P34903); assay: Antagonist activity at GABAA alpha3beta3gamma3 in Homo sapiens (human) L(tk-) cells relative to GABA
# [7] = target: GABA-A receptor; alpha-1/beta-3/gamma-2 (Homo sapiens) (UniProt P14867+P18507+P28472); assay: Modulation of GABA-Aalpha1beta3gamma2 in Homo sapiens (human) L(tk-) cells relative to GABA
# [8] = target: GABA-A receptor; alpha-5/beta-3/gamma-2 (Homo sapiens) (UniProt P18507+P28472+P31644); assay: Modulation of GABAA alpha5beta3gamma2 in Homo sapiens (human) L(tk-) cells patch clamp assay relative to GABA
# [9] = target: GABA-A receptor; alpha-2/beta-3/gamma-2 (Homo sapiens) (UniProt P18507+P28472+P47869); assay: Antagonist activity at GABAA alpha2beta3gamma2 in Homo sapiens (human) L(tk-) cells by patch clamp assay relative to GABA
# [10] = target: T1, GABA-A receptor; alpha-5/beta-3/gamma-2 (Homo sapiens, UniProt P18507+P28472+P31644); assay: Inverse agonist activity at GABAA alpha5beta3gamma2 in Homo sapiens (human) L(tk-) cells by patch clamp assay
# T1 sequence (P18507 whole entry): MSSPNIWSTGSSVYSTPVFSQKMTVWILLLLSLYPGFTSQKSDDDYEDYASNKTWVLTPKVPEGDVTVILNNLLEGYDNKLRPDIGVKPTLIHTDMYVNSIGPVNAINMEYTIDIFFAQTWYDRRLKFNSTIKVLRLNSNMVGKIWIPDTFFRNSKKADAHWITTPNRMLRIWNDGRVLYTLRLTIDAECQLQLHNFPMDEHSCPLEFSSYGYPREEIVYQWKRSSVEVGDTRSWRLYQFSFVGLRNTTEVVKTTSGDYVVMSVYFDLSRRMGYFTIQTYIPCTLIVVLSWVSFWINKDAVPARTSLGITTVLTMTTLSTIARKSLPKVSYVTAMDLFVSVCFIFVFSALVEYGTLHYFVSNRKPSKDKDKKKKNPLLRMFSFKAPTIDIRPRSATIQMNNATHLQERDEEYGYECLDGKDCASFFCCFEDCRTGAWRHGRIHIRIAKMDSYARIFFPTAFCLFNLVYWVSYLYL
# T1 sequence (P28472 whole entry): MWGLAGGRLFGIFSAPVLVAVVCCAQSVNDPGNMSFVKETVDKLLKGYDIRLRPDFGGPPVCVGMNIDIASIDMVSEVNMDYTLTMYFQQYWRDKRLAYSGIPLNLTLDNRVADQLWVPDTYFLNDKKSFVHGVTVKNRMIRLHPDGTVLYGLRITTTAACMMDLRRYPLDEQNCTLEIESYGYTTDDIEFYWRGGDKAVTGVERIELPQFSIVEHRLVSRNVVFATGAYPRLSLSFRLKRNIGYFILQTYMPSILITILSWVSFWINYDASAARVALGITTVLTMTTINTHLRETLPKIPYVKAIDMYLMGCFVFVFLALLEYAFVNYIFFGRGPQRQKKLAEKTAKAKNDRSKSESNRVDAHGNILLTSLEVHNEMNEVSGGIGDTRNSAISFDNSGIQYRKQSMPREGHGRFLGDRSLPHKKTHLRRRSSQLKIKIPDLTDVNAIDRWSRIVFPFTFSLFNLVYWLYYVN
# T1 sequence (P31644 whole entry): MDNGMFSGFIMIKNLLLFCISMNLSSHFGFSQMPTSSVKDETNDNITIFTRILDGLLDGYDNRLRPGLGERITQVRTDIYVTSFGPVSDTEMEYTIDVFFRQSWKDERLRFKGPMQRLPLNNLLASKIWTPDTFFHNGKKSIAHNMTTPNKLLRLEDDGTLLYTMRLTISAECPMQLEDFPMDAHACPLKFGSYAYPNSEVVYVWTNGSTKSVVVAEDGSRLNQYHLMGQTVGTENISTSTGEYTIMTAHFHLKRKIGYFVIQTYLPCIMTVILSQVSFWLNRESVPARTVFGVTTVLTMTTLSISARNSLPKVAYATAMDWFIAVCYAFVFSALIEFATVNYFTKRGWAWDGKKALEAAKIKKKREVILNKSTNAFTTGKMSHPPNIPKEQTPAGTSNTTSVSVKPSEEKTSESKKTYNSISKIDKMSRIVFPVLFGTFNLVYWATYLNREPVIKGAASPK
# [11] = target: T2, Gamma-aminobutyric acid receptor subunit alpha-3/ beta-3/gamma-3 (Homo sapiens, UniProt P28472+P34903+Q99928); assay: Binding affinity to GABAA alpha3beta3gamma3 (unknown origin); type: protein-complex assay
# T2 sequence (P28472 whole entry): T1 sequence (P28472 whole entry)
# T2 sequence (Q99928 whole entry): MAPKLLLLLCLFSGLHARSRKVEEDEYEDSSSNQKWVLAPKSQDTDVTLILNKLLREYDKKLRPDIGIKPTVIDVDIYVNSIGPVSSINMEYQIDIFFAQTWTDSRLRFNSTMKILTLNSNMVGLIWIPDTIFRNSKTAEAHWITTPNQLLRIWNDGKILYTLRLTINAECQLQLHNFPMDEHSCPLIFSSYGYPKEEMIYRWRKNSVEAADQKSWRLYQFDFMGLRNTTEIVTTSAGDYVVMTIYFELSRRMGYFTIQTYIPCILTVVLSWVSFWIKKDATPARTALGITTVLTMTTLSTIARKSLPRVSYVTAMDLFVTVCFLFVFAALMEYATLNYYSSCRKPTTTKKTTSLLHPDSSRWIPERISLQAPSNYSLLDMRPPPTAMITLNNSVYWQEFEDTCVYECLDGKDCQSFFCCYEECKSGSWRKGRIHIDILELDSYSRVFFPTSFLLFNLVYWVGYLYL
# T2 sequence (P34903 whole entry): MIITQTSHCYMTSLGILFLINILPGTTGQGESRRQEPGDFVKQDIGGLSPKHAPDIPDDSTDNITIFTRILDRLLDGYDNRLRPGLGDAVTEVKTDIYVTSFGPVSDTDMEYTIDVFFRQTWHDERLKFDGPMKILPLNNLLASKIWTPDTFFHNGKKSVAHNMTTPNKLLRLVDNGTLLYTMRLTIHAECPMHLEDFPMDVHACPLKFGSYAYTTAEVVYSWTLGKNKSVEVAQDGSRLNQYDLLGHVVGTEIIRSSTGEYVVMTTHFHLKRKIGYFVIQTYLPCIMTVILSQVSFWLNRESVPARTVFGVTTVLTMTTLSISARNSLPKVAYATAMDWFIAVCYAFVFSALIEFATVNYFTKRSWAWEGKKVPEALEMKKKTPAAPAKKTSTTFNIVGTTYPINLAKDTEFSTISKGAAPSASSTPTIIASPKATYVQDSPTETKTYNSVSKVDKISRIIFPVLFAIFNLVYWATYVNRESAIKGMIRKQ
compound,measurement,setting,value
CC1(C)CC(=O)c2c(SCCO)sc(-c3nccs3)c2C1,Ratio Ki,Homo sapiens [1],10
same,Ratio Ki,Homo sapiens [2],10
same,Ratio Ki,Homo sapiens [3],10
same,Occ,Rattus norvegicus [4],40%
same,Activity,Rattus norvegicus [5],Active
same,Activity,[6],Active
same,Efficacy,[7],-21%
same,Emax,[8],-51%
same,Activity,[9],Active
same,EC50,[10],0.0007 µM
same,Ki,[11],0.02 µM
